We go through 1 molecule from US5705509A, “Tricyclic heterocyclic compounds as 5-HT4 receptor antagonists” (SmithKline Beecham plc, priority 1993, dated 1998).

SMILES strings stand for the structures.

The target of the test is T1, 5-HT4 receptor (Cavia porcellus, UniProt O70528).
T1 construct: Longitudinal muscle-myenteric plexus preparations, approximately 3 cm long, are obtained from the distal colon region; from tissue; host or cells: guinea-pig distal colon, longitudinal muscle-myenteric plexus
T1 sequence (O70528 whole entry): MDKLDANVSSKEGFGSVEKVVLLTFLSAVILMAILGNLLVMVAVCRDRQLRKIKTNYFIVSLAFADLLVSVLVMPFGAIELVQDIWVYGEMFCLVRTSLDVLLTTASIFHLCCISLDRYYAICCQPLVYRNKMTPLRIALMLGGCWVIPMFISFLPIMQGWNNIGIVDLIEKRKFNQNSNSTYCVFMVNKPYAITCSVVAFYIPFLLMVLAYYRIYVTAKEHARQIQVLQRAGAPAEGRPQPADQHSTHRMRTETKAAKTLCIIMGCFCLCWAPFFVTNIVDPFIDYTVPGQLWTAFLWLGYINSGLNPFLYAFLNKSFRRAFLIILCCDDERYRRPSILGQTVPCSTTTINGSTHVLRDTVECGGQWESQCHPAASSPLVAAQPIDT
Briefly: Guinea pig colon 5-HT4 receptor antagonist activity (reduction of 5-HT evoked contraction of longitudinal muscle-myenteric plexus). The conditions noted are these: distal colon longitudinal muscle-myenteric plexus; contraction evoked by 5-HT; methiothepin 10^-7 M and granisetron 10^-6 M present; n=4; read-out: pIC50 (-log concentration of antagonist which reduces the contraction by 50%) (converted). The procedure: Male guinea-pigs, weighing 250-400 g are used. Longitudinal muscle-myenteric plexus preparations, approximately 3 cm long, are obtained from the distal colon region. These are suspended under a 0.5 g load in isolated tissue baths containing Krebs solution bubbled with 5% CO2 in O2 and maintained at 37° C. In all experiments, the Krebs solution also contains methiothepin 10^-7 M and granisetron 10^-6 M to block effects at 5-HT1, 5-HT2 and 5-HT3 receptors.
After construction of a simple concentration-response curve with 5-HT, using 30s contact times and a 15 min dosing cycle, a concentration of 5-HT is selected so as to obtain a contraction of the muscle approximately 40-70% maximum(10^-9 M approx). The tissue is then alternately dosed every 15 min with this concentration of 5-HT and then with an approximately equi-effective concentration of the nicotine receptor stimulant, dimethylphenylpiperazinium (DMPP). After obtaining consistent responses to both 5-HT and DMPP, increasing concentrations of a putative 5-HT4 receptor antagonist are then added to the bathing solution. The effects of this compound are then determined as a percentage reduction of the contractions evoked by 5-HT or by DMPP. […] A compound which reduces the response to 5-HT but not to DMPP is believed to act as a 5-HT4 receptor antagonist.

On to `CCCCN1CCC(COC(=O)c2cc3[nH]cnc3c3c2OCCO3)CC1` [Example 1, (1-Butyl-4-piperidinyl)methyl 1 H-7,8-dihydro-[1,4]-dioxino[2,3-g]benzimidazole-5-carboxylate], for which the IC50 was 166 nM.
